In PMC8401465, “In Vitro Testing of Alternative Synthetic and Natural Antiparasitic Compounds against the Monogenean Sparicotyle chrysophrii” (Pathogens, 2021):
Where two headings read alike, the source gives them in different places.

Key:
[1] = system: Sparicotyle chrysophrii adults; test: microbe, parasite or virus in culture; conditions: for LC20 (95% CI), toxicity level for adult S. chrysophrii: 20% mortality; for LC50: read-out: LC50 (95% CI), toxicity level for adult S. chrysophrii; for LC80 (95% CI), toxicity level for adult S. chrysophrii: 80% mortality; for b (SE), slope of dose–response model / e (SE), midpoint of dose–response model: Weibull type 2, c = 0, d = 1, mortality at 4 h post-exposure; for fold less toxic for S. chrysophrii than eucalyptol and garlicin 80%: comparison with eucalyptol and garlicin 80%; for fold lower toxicity for S. chrysophrii than curcumin: comparison with curcumin
Experimental: Subsequently, the monogeneans (n = 6, in triplicate) were exposed to a range of seven concentrations tailored according to each compound’s activity observed in preliminary tests. The range for each compound was scaled down to an appropriate order of magnitude so that each compound reached 100% mortality at 4 h post-exposure (Table 1).
For the dose–response curve fitting, the drc package for R (v4.0.4) was used. An appropriate nonlinear regression model was selected between log-logistic and Weibull type models, based on the Akaike information criterion (AIC) and lack-of-fit test criteria through the use of mselect function. The best scoring model was Weibull type 2 model (asymmetrical) with lower and upper limits fixed to 0 and 1, respectively, as mortality in all assays reached 100%. […] Model parameters and estimated lethal doses (20%, 50%, and 80%) were calculated with standard errors and 95% confidence intervals, based on the delta method, respectively, and adjusted for simultaneous inference through multcomp package. Dose–response curves were visualised using ggplot2 library.

[2] = system: Vibrio harveyi; test: Bactericidal activity (MTT), Vibrio harveyi; type: cell-based; conditions: for bactericidal activity against V. harveyi: synthetic compounds, at increased concentrations; for inhibition at 0.1 µM / inhibition at 1 µM / inhibition at 10 µM: Vibrio harveyi; for antimicrobial activity against V. harveyi: p < 0.05
Experimental: (§1) Two bacterial fish pathogens, Vibrio harveyi and V. anguillarum were used to test the bactericidal activity of the target compounds, being previously isolated and identified as described in [65]. Lab strains were maintained at −20 °C in Tryptone Soy Broth (TSB, Difco Laboratories, Inc., Detroit, MI, USA) supplemented with 1% (w/v) NaCl (TSB1) and 50% (v/v) glycerol. […] Bacteria in TSB medium were then cultured at the same temperature with continuous shaking (100 rpm) for 24 h. Exponentially grown bacteria were resuspended in sterile PBS and adjusted to the concentration of 10^8 colony forming units (cfu)/mL. Each target compound (20 μL; concentrations 0.1, 1, and 10 µM) was added (in triplicates) to the wells of a flat-bottom 96-well plate, except for the positive control that consisted of 0.5% DMSO in PBS. Aliquots of 20 μL of the previously cultured bacteria were added, and the plate was incubated for 5 h at 25 °C. […] The plate was then centrifuged (4500 rpm, 10 min) and the precipitate dissolved in 200 μL of DMSO. The solution (100 μL) from each well was transferred to another flat-bottom 96-well plate. The absorbance of the dissolved formazan was measured at 570 nm. Bactericidal activity was expressed as percentage of nonviable bacteria, calculated as the difference between absorbance of surviving bacteria compared to the absorbance of bacteria in positive controls (100%).

[3] = system: Vibrio anguillarum; test: Bactericidal activity (MTT), Vibrio anguillarum; type: cell-based; conditions: for antibacterial activity against V. anguillarum: among the natural compounds; for antibacterial activity against V. anguillarum / antimicrobial activity against V. anguillarum: p < 0.05; for inhibition at 0.1 µM / inhibition at 1 µM / inhibition at 10 µM: Vibrio anguillarum
Experimental: as §1

[4] = system: Sparicotyle chrysophrii adults; test: microbe, parasite or virus in culture; conditions: for mortality at 1000 µM: Sparicotyle chrysophryii
Experimental: Firstly, the adult monogeneans were exposed to a range of four concentrations of tested compounds encompassing the full dose–response range; each compound stock at 10 mM was serially diluted 10 (1 mM), 10^2 (0.1 mM), 10^3 (0.01 mM), and 10^4 (1 µM) times. […] Ten monogeneans per well (in triplicate) were added to 2 mL sterile seawater (SW) in 6-well plates, checked at the stereomicroscope for visible signs of mechanical damage, and exposed to selected concentrations in the dark at room temperature (Table 1). The number of live/dead parasites was recorded under the stereomicroscope at 1, 4, 12, and 24 h post-exposure. S. chrysophrii was considered to be alive if it performed any type of movement autonomously or 5 s after gentle probing with a dissection needle. Negative controls comprised the seawater with up to 0.5% of DMSO in total volume, the latter used as a solvent for each compound.

[5] = 50% mortality, 4 h post-exposure
[6] = 0.1 µM, 5 h at 25 °C, read-out: Bactericidal activity (%)
[7] = 1 µM, 5 h at 25 °C, read-out: Bactericidal activity (%)
[8] = 10 µM, 5 h at 25 °C, read-out: Bactericidal activity (%)
[9] = 5 h, read-out: Bactericidal activity (%)

1R-Camphor
LC20 (95% CI), toxicity level for adult S. chrysophrii ([1]; 4 h post-exposure): 0.71 (0.53–0.89) mM
LC50 [1, 5]: 910 µM
LC80 (95% CI), toxicity level for adult S. chrysophrii ([1]; 4 h post-exposure): 1.1 (0.94–1.26) mM
b (SE), slope of dose–response model [1]: 4.54 (0.91)
e (SE), midpoint of dose–response model [1]: 0.99 (0.05)
fold less toxic for S. chrysophrii than eucalyptol and garlicin 80% [1]: approximately 1.2
inhibition [2, 6]: -23.6 ± 2.6%
inhibition [2, 7]: 7.7 ± 10.7%
inhibition [2, 8]: 9.3 ± 7.4%
inhibition [3, 6]: -38.8 ± 22%
inhibition [3, 7]: -27.8 ± 19%
inhibition [3, 8]: -17.4 ± 9.3%

CC(C)=C[C@@H]1[C@@H](C(=O)O)C1(C)C (relative stereo) [(+)-trans-Chrysanthemic acid]
LC20 (95% CI), toxicity level for adult S. chrysophrii ([1]; 4 h post-exposure): 0.58 (0.43–0.74) mM
LC50 [1, 5]: 840 µM
LC80 (95% CI), toxicity level for adult S. chrysophrii ([1]; 4 h post-exposure): 1.1 (0.79–1.41) mM
b (SE), slope of dose–response model [1]: 3.12 (0.69)
e (SE), midpoint of dose–response model [1]: 0.94 (0.07)
fold less toxic for S. chrysophrii than eucalyptol and garlicin 80% [1]: approximately 1.2
inhibition [2, 6]: -47.7 ± 5.9%
inhibition [2, 7]: -25.4 ± 14.6%
inhibition [2, 8]: 13.2 ± 6.5%
potency / effect against V. anguillarum as judged in the discussion [3]: the effect was observed only against V. anguillarum
inhibition [3, 6]: -1.4 ± 13%
inhibition [3, 7]: 8.15 ± 16.3%
inhibition [3, 8]: 32 ± 9%
antibacterial activity against V. anguillarum [3]: strongest antibacterial activity

Oc1c(Cl)cc(Cl)cc1Sc1cc(Cl)cc(Cl)c1O [Bithionate sodium, 2,2′-sulfanediylbis(4,6-dichlorophenolate), reference compound]
LC20 (95% CI), toxicity level for adult S. chrysophrii ([1]; 4 h post-exposure): 0.003 (0.002–0.005) mM
LC50 [1, 5]: 5 to 10 µM
LC80 (95% CI), toxicity level for adult S. chrysophrii ([1]; 4 h post-exposure): 0.01 (0.01–0.01) mM
b (SE), slope of dose–response model [1]: 1.93 (0.36)
e (SE), midpoint of dose–response model [1]: 0.01 (0.001)
inhibition [2, 6]: -8.8 ± 1.8%
inhibition [2, 7]: 3.5 ± 11.6%
inhibition [2, 8]: 40 ± 0.7%
bactericidal activity against V. harveyi [2]: significant bactericidal activity
inhibition [3, 6]: 4.9 ± 11.8%
inhibition [3, 7]: 49.2 ± 11.6%
antimicrobial activity against V. anguillarum ([3]; 10 µM): best antimicrobial activity
inhibition [3, 8]: 96.4 ± 1.7%

O=c1ccc2ccccc2o1 [Coumarin]
mortality at 1000 µM ([4]; 24 h): 100%
inhibition at 0.1 µM [2, 6]: -33.4 ± 3.9%
inhibition at 1 µM [2, 7]: -21.2 ± 13.3%
inhibition at 10 µM [2, 8]: -1.9 ± 7.6%
inhibition at 0.1 µM [3, 6]: 1.5 ± 8.38%
inhibition at 1 µM [3, 7]: 13.2 ± 13.4%
inhibition at 10 µM [3, 8]: 17.3 ± 5%
antibacterial activity against V. anguillarum [3]: strongest antibacterial activity

C=CCSCC=C [Diallyl sulphide]
mortality at 1000 µM ([4]; 24 h): 100%
inhibition at 0.1 µM [2, 6]: -36.6 ± 6.8%
inhibition at 1 µM [2, 7]: -36.4 ± 7.9%
inhibition at 10 µM [2, 8]: -1.6 ± 0.7%
antimicrobial activity against V. anguillarum ([3]; 10 µM): best antimicrobial activity
inhibition at 0.1 µM [3, 6]: -11.3 ± 24.8%
inhibition at 1 µM [3, 7]: -5.8 ± 11.7%
inhibition at 10 µM [3, 8]: 46.8 ± 4%

CC12CCC(CC1)C(C)(C)O2 [Eucalyptol]
LC20 (95% CI), toxicity level for adult S. chrysophrii ([1]; 4 h post-exposure): 0.5 (0.38–0.63) mM
LC80 (95% CI), toxicity level for adult S. chrysophrii ([1]; 4 h post-exposure): 0.83 (0.71–0.94) mM
LC50 ([1]; Sparicotyle chrysophryii, 4 h): 670 µM
b (SE), slope of dose–response model [1]: 3.99 (0.7)
e (SE), midpoint of dose–response model [1]: 0.74 (0.03)
fold lower toxicity for S. chrysophrii than curcumin [1]: approximately 3
potency / effect against V. harveyi as judged in the discussion [2]: highest anti-Vibrio harveyi effect among tested natural compounds
antimicrobial activity against V. harveyi ([2]; 10 µM): significant antimicrobial activity
inhibition at 0.1 µM [2, 6]: -2.7 ± 8.7%
inhibition at 1 µM [2, 7]: -1.9 ± 12.3%
inhibition at 10 µM [2, 8]: 50.3 ± 6.8%
potency / effect against V. anguillarum as judged in the discussion [3]: ineffective against V. anguillarum
inhibition at 0.1 µM [3, 6]: -31.7 ± 156%
inhibition at 1 µM [3, 7]: -34.1 ± 10.5%
inhibition at 10 µM [3, 8]: 23.6 ± 3.1%

C=CCSSCC=C [Garlicin 80%]
LC20 (95% CI), toxicity level for adult S. chrysophrii ([1]; 4 h post-exposure): 0.4 (0.27–0.53) mM
LC50 [1, 5]: 600 µM
LC80 (95% CI), toxicity level for adult S. chrysophrii ([1]; 4 h post-exposure): 0.81 (0.66–0.95) mM
b (SE), slope of dose–response model [1]: 2.79 (0.49)
e (SE), midpoint of dose–response model [1]: 0.68 (0.04)
fold lower toxicity for S. chrysophrii than curcumin [1]: approximately 3
potency / effect against V. harveyi as judged in the discussion [2]: highest anti-Vibrio harveyi effect among tested natural compounds
inhibition [2, 6]: 20.9 ± 19.9%
inhibition [2, 7]: 28.7 ± 6.2%
antimicrobial activity against V. harveyi ([2]; 10 µM): significant antimicrobial activity
inhibition [2, 8]: 42 ± 1.3%
potency / effect against V. anguillarum as judged in the discussion [3]: ineffective against V. anguillarum
inhibition [3, 6]: -110 ± 84.2%
inhibition [3, 7]: -46 ± 17.2%
inhibition [3, 8]: -52.1 ± 31.4%

C[C@H]1C(=O)O[C@@H]2CCN3CC=C(COC(=O)[C@](C)(O)[C@]1(C)O)[C@H]23 [Monocrotaline]
mortality at 1000 µM ([4]; 1 h): 100%
antimicrobial activity against V. harveyi ([2]; 10 µM): significant antimicrobial activity
inhibition at 0.1 µM [2, 9]: -4.9 ± 24.9%
inhibition at 1 µM [2, 9]: 18.2 ± 10.9%
inhibition at 10 µM [2, 9]: 40.1 ± 4.1%
inhibition at 0.1 µM [3, 9]: -73 ± 56.1%
inhibition at 1 µM [3, 9]: -46.9 ± 32%
inhibition at 10 µM [3, 9]: 17.9 ± 0.6%

CCN(CC)C(=O)c1cccc(C)c1 [N,N-diethyl-M-toluamide, reference compound]
mortality ([4]; highest concentration (1 mM), already after 1 h): 100%
inhibition ([2]; 0.1 µM): -0.9 ± 8.7%
inhibition ([2]; 1 µM): 4.5 ± 16.7%
inhibition ([2]; 10 µM): 13.7 ± 0.6%
bactericidal activity against V. harveyi [2]: significant bactericidal activity
inhibition ([3]; 0.1 µM): -61.9 ± 29%
inhibition ([3]; 1 µM): -28.5 ± 24.1%
inhibition ([3]; 10 µM): 9.1 ± 8.5%
